Measured values published in patent publication US20250041429A1, “COMPOUND HAVING BTK PROTEIN DEGRADATION ACTIVITY, AND MEDICAL USES THEREOF” (UBIX THERAPEUTICS, INC., priority 2021, published 2025).

Molecular target: T1, BTK protein (Homo sapiens, UniProt Q06187)
T1 construct: endogenous in cells; host or cells: TMD-8 cells
Test: Measurement of BTK protein degradation ability in TMD-8 cells (Western blotting)
Assay type: cell-based
Conditions: harvested after 24 hours; for BTK degradation (%) 1 nM: compound 1 nM; for BTK degradation (%) 10 nM: compound 10 nM; for BTK degradation (%) 100 nM: compound 100 nM
How it was run: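 BTK levels were measured by immunoblotting of equal-protein RIPA lysates, normalized to GAPDH or β-actin, with chemiluminescent or infrared detection. Lysates came from TMD-8 cells exposed to compound for 24 h at final concentrations of 0.1, 1, 10 μM or 0.0001–0.1 μM, against a DMSO control.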

T1 sequence (Q06187 whole entry): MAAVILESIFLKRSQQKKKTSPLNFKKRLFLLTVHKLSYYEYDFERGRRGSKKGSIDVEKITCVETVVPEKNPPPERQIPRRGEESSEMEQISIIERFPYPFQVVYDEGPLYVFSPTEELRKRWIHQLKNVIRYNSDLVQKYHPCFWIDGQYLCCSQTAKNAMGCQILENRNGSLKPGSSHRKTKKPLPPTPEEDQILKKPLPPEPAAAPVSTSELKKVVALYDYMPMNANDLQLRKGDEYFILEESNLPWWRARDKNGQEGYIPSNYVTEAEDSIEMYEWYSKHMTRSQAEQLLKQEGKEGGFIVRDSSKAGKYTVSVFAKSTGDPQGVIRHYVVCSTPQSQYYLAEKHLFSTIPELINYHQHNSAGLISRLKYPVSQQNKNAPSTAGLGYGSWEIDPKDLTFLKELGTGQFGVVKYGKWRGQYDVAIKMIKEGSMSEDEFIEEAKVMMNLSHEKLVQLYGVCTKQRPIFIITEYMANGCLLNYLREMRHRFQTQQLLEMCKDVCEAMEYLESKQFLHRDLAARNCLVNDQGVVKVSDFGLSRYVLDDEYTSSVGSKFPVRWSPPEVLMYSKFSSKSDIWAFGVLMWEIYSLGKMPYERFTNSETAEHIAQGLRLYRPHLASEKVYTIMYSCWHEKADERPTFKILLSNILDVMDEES

**Q.** How did the “BTK degradation (%) 1 nM” value turn out when `Cc1cc(-c2ccnc(Nc3ccc(CN4CCN(CC5CCN(c6cccc(N7CCC(=O)NC7=O)c6)CC5)CC4)cc3)n2)ccc1CNC(=O)N1CC(OC(C)C)C1` [Example 67, N-(4-(2-((4-((4-((1-(3-(2,4-dioxotetrahydropyrimidin-1 (2H)-yl)phenyl)piperidin-4-yl)methyl)piperazin-1-yl)methyl)phenyl)amino)pyrimidin-4-yl)-2-methylbenzyl)-3-isopropoxyazetidine-1-carboxamide] was run?
**A.** 13.5%

**Q.** What about the “BTK degradation (%) 10 nM” value of the same compound?
**A.** 77.0%

**Q.** And the “BTK degradation (%) 100 nM” value?
**A.** 98.0%

**Q.** Which results are given for `Cc1cc(-c2ccnc(Nc3ccc(CN4CCN(CC5CCN(c6ccc(N7CCC(=O)NC7=O)cc6)CC5)CC4)cc3)n2)ccc1CNC(=O)N1CC(OC(C)C)C1` [Example 68, N-(4-(2-((4-((4-((1-(4-(2,4-dioxotetrahydropyrimidin-1 (2H)-yl)phenyl)piperidin-4-yl)methyl)piperazin-1-yl)methyl)phenyl)amino)pyrimidin-4-yl)-2-methylbenzyl)-3-isopropoxyazetidine-1-carboxamide]?
**A.** BTK degradation (%) 1 nM: 22.5%; BTK degradation (%) 10 nM: 88.0%; BTK degradation (%) 100 nM: 99.0%

**Q.** Which “BTK degradation (%) 1 nM” value does the source give for `Cc1cc(-c2ccnc(Nc3ccc(CN4CCN(CC5CCN(c6cccc(NC7CCC(=O)NC7=O)c6)CC5)CC4)cc3)n2)ccc1CNC(=O)c1cn(C(C)(C)C)nn1` (stereo not drawn) [Example 69, 1-(tert-butyl)-N-(4-(2-((4-((4-((1-(3-((2,6-dioxopiperidin-3-yl)amino)phenyl)piperidin-4-yl)methyl)piperazin-1-yl)methyl)phenyl)amino)pyrimidin-4-yl)-2-methylbenzyl)-1H-1,2,3-triazole-4-carboxamide] here?
**A.** 61.5%

**Q.** And the “BTK degradation (%) 10 nM” value?
**A.** 95.0%

**Q.** What about the “BTK degradation (%) 100 nM” value of the same compound?
**A.** 99.5%

**Q.** `Cc1cc(-c2ccnc(Nc3ccc(N4CCN(CC5CCN(c6cccc(N7CCC(=O)NC7=O)c6)CC5)CC4)cc3)n2)ccc1CNC(=O)c1cn(C(C)(C)C)nn1` [Example 70, 1-(tert-butyl)-N-(4-(2-((4-(4-((1-(3-(2,4-dioxotetrahydropyrimidin-1 (2H)-yl)phenyl)piperidin-4-yl)methyl)piperazin-1-yl)phenyl)amino)pyrimidin-4-yl)-2-methylbenzyl)-1H-1,2,3-triazole-4-carboxamide] was tested. Which “BTK degradation (%) 1 nM” value did it give?
**A.** 67.0%

**Q.** What about the “BTK degradation (%) 10 nM” value of the same compound?
**A.** 97.5%

**Q.** And the “BTK degradation (%) 100 nM” value?
**A.** 99.5%

**Q.** `Cc1cc(-c2ccnc(Nc3ccc(N4CCN(CC5CCN(c6ccc(N7CCC(=O)NC7=O)cc6)CC5)CC4)cc3)n2)ccc1CNC(=O)c1cn(C(C)(C)C)nn1` [Example 71, 1-(tert-butyl)-N-(4-(2-((4-(4-((1-(4-(2,4-dioxotetrahydropyrimidin-1 (2H)-yl)phenyl)piperidin-4-yl)methyl)piperazin-1-yl)phenyl)amino)pyrimidin-4-yl)-2-methylbenzyl)-1H-1,2,3-triazole-4-carboxamide] was tested. Which “BTK degradation (%) 1 nM” value did it give?
**A.** 80.5%

**Q.** And the “BTK degradation (%) 10 nM” value?
**A.** 98.0%

**Q.** And the “BTK degradation (%) 100 nM” value?
**A.** 99.5%

**Q.** `Cc1cc(-c2ccnc(Nc3ccc(N4CCN(CC5CCN(c6ccc(NC7CCC(=O)NC7=O)cc6F)CC5)CC4)cc3)n2)ccc1CNC(=O)c1cn(C(C)(C)C)nn1` (stereo not drawn) [Example 72, 1-(tert-butyl)-N-(4-(2-((4-(4-((1-(4-((2,6-dioxopiperidin-3-yl)amino)-2-fluorophenyl)piperidin-4-yl)methyl)piperazin-1-yl)phenyl)amino)pyrimidin-4-yl)-2-methylbenzyl)-1H-1,2,3-triazole-4-carboxamide] was tested. Which “BTK degradation (%) 1 nM” value did it give?
**A.** 62.5%

**Q.** And the “BTK degradation (%) 10 nM” value?
**A.** 95.5%

**Q.** What about the “BTK degradation (%) 100 nM” value of the same compound?
**A.** 99.0%

**Q.** What does the source list for `Cc1cc(-c2ccnc(Nc3ccc(N4CCN(CC5CCN(c6ccc(N7CCC(=O)NC7=O)cc6F)CC5)CC4)cc3)n2)ccc1CNC(=O)c1cn(C(C)(C)C)nn1` [Example 73]?
**A.** BTK degradation (%) 1 nM: 43.0%; BTK degradation (%) 10 nM: 91.5%; BTK degradation (%) 100 nM: 97.0%

**Q.** For `Cc1cc(-c2ccnc(Nc3ccc(CN4CCN(CC5CCN(c6cccc(N7CCC(=O)NC7=O)c6)CC5)CC4)cc3)n2)ccc1CNC(=O)c1cn(C(C)(C)C)nn1` [Example 74, 1-(tert-butyl)-N-(4-(2-((4-((4-((1-(3-(2,4-dioxotetrahydropyrimidin-1 (2H)-yl)phenyl)piperidin-4-yl)methyl)piperazin-1-yl)methyl)phenyl)amino)pyrimidin-4-yl)-2-methylbenzyl)-1H-1,2,3-triazole-4-carboxamide], which “BTK degradation (%) 1 nM” value is on record?
**A.** 43.0%

**Q.** What about the “BTK degradation (%) 10 nM” value of the same compound?
**A.** 91.5%

**Q.** What about the “BTK degradation (%) 100 nM” value of the same compound?
**A.** 96.5%

**Q.** Which “BTK degradation (%) 1 nM” value does the source give for `Cc1cc(-c2ccnc(Nc3ccc(CN4CCN(CC5CCN(c6ccc(N7CCC(=O)NC7=O)cc6)CC5)CC4)cc3)n2)ccc1CNC(=O)c1cn(C(C)(C)C)nn1` [Example 75, 1-(tert-butyl)-N-(4-(2-((4-((4-((1-(4-(2,4-dioxotetrahydropyrimidin-1 (2H)-yl)phenyl)piperidin-4-yl)methyl)piperazin-1-yl)methyl)phenyl)amino)pyrimidin-4-yl)-2-methylbenzyl)-1H-1,2,3-triazole-4-carboxamide] here?
**A.** 14.0%

**Q.** What about the “BTK degradation (%) 10 nM” value of the same compound?
**A.** 87.0%

**Q.** And the “BTK degradation (%) 100 nM” value?
**A.** 98.0%

**Q.** What does the source list for `Cc1cc(-c2ccnc(Nc3ccc(N4CCN(CC5CCN(c6cccc(N7CCC(=O)NC7=O)c6)CC5)CC4)nc3)n2)ccc1CNC(=O)c1cn(C(C)(C)C)nn1` [Example 76]?
**A.** BTK degradation (%) 1 nM: 55.0%; BTK degradation (%) 10 nM: 96.5%; BTK degradation (%) 100 nM: 100.0%

**Q.** Which results are given for `Cc1cc(-c2ccnc(Nc3ccc(N4CCN(CC5CCN(c6ccc(N7CCC(=O)NC7=O)cc6)CC5)CC4)nc3)n2)ccc1CNC(=O)c1cn(C(C)(C)C)nn1` [Example 77]?
**A.** BTK degradation (%) 1 nM: 57.5%; BTK degradation (%) 10 nM: 96.0%; BTK degradation (%) 100 nM: 99.5%

**Q.** `Cc1cc(-c2ccnc(Nc3ccc(C4CCN(CC5CCN(c6cccc(N7CCC(=O)NC7=O)c6)CC5)CC4)cc3)n2)ccc1CNC(=O)c1cn(C(C)(C)C)nn1` [Example 78, 1-(tert-butyl)-N-(4-(2-((4-(1-((1-(3-(2,4-dioxotetrahydropyrimidin-1 (2H)-yl)phenyl)piperidin-4-yl)methyl)piperidin-4-yl)phenyl)amino)pyrimidin-4-yl)-2-methylbenzyl)-1H-1,2,3-triazole-4-carboxamide] was tested. Which “BTK degradation (%) 1 nM” value did it give?
**A.** 43.5%

**Q.** And the “BTK degradation (%) 10 nM” value?
**A.** 93.5%

**Q.** And the “BTK degradation (%) 100 nM” value?
**A.** 99.0%

**Q.** For `Cc1cc(-c2ccnc(Nc3ccc(C4CCN(CC5CCN(c6ccc(N7CCC(=O)NC7=O)cc6)CC5)CC4)cc3)n2)ccc1CNC(=O)c1cn(C(C)(C)C)nn1` [Example 79, 1-(tert-butyl)-N-(4-(2-((4-(1-((1-(4-(2,4-dioxotetrahydropyrimidin-1 (2H)-yl)phenyl)piperidin-4-yl)methyl)piperidin-4-yl)phenyl)amino)pyrimidin-4-yl)-2-methylbenzyl)-1H-1,2,3-triazole-4-carboxamide], which “BTK degradation (%) 1 nM” value is on record?
**A.** 26.0%

**Q.** What about the “BTK degradation (%) 10 nM” value of the same compound?
**A.** 92.5%

**Q.** What about the “BTK degradation (%) 100 nM” value of the same compound?
**A.** 98.0%

**Q.** For `Cc1cc(-c2ccnc(Nc3ccc(N4CCN(CC5CCN(c6cccc(N7CCC(=O)NC7=O)c6)CC5)CC4)cc3)n2)ccc1CNC(=O)c1cnn(C(C)C)c1` [Example 80, N-(4-(2-((4-(4-((1-(3-(2,4-dioxotetrahydropyrimidin-1 (2H)-yl)phenyl)piperidin-4-yl)methyl)piperazin-1-yl)phenyl)amino)pyrimidin-4-yl)-2-methylbenzyl)-1-isopropyl-1H-pyrazole-4-carboxamide], which “BTK degradation (%) 1 nM” value is on record?
**A.** 73.5%

**Q.** And the “BTK degradation (%) 10 nM” value?
**A.** 98.0%

**Q.** And the “BTK degradation (%) 100 nM” value?
**A.** 99.5%

**Q.** For `Cc1cc(-c2ccnc(Nc3ccc(N4CCN(CC5CCN(c6cccc(N7CCC(=O)NC7=O)c6)CC5)CC4)cc3)n2)ccc1CNC(=O)c1cnn(C(C)(C)C)c1` [Example 81, 1-(tert-butyl)-N-(4-(2-((4-(4-((1-(3-(2,4-dioxotetrahydropyrimidin-1 (2H)-yl)phenyl)piperidin-4-yl)methyl)piperazin-1-yl)phenyl)amino)pyrimidin-4-yl)-2-methylbenzyl)-1H-pyrazole-4-carboxamide], which “BTK degradation (%) 1 nM” value is on record?
**A.** 65.0%

**Q.** And the “BTK degradation (%) 10 nM” value?
**A.** 97.0%

**Q.** And the “BTK degradation (%) 100 nM” value?
**A.** 99.5%

**Q.** Which results are given for `Cc1cc(-c2ccnc(Nc3ccc(N4CCN(CC5CCN(c6cccc(N7CCC(=O)NC7=O)c6)CC5)CC4)nc3)n2)ccc1CNC(=O)c1cnn(C(C)C)c1` [Example 82, N-(4-(2-((6-(4-((1-(3-(2,4-dioxotetrahydropyrimidin-1 (2H)-yl)phenyl)piperidin-4-yl)methyl)piperazin-1-yl)pyridin-3-yl)amino)pyrimidin-4-yl)-2-methylbenzyl)-1-isopropyl-1H-pyrazole-4-carboxamide]?
**A.** BTK degradation (%) 1 nM: 32.0%; BTK degradation (%) 10 nM: 87.5%; BTK degradation (%) 100 nM: 99.5%

**Q.** What does the source list for `Cc1cc(-c2ccnc(Nc3ccc(N4CCN(CC5CCN(c6cccc(N7CCC(=O)NC7=O)c6)CC5)CC4)nc3)n2)ccc1CNC(=O)c1cnn(C(C)(C)C)c1` [Example 83, 1-(tert-butyl)-N-(4-(2-((6-(4-((1-(3-(2,4-dioxotetrahydropyrimidin-1 (2H)-yl)phenyl)piperidin-4-yl)methyl)piperazin-1-yl)pyridin-3-yl)amino)pyrimidin-4-yl)-2-methylbenzyl)-1H-pyrazole-4-carboxamide]?
**A.** BTK degradation (%) 1 nM: 51.0%; BTK degradation (%) 10 nM: 96.5%; BTK degradation (%) 100 nM: 99.5%
